Source: patent US20110207796A1, “ALPHA-SYNUCLEIN KINASE” (Elan Pharma International Limited, priority 2008, published 2011)
Where two headings read alike, the source gives them in different places.

Key:
brain p-synuclein = assay: synuclein phosphorylation in brains of FVB mice treated with kainic acid (immunohistochemistry, ELISA); assay type: in vivo, mouse; conditions: immunohistochemistry and ELISA
Excerpt: This example describes up regulation of phosphorylated α-synuclein (p-synuclein) in wildtype mice after kainic acid administration. Several articles have reported that excitotoxicity can result in an upregulation of polo-like kinases. […] Thus the kainic acid model provides better understanding the involvement of the PLK2 p-synuclein pathway in neurodegeneration and may be used in screening assays of the invention.

[1] = tested on: endogenous kinase (synuclein phosphorylation); assay: HEK-293 cells overexpressing synuclein with empty vector, inhibition of synuclein phosphorylation; assay type: cell-based, human; conditions: Homo sapiens
Procedure: All vectors had the sequence coding for the protein of interest. Transfection was accomplished using Lipofectamine 2000 (Invitrogen, Carlsbad, Calif.) with 0.08 μg vector. Cells were washed and harvested 48 hours post-transfection. A Micro BCA (Pierce) total protein assay and total synuclein and phospho-synuclein ELISAs were performed on each plate of treated cells.

[2] = tested on: synuclein phosphorylation by endogenous kinase; assay: kinase inhibitor treatment of mouse cortical cultures (MCC), total and phospho-synuclein ELISA; assay type: cell-based
Procedure: Mouse cortical cultures from fetal (i) Swiss-Webster, (ii) C56BL/6 WT and (iii) C56BL/6 E46K-Synuclein Trangenic mice were prepared and maintained in B27/DMEM/1% Penicillin-Streptomycin at 37° C./10% CO2 for three to fourteen days and then treated with kinase inhibitors.
Cultures were exposed to inhibitors for two hours in B27/DMEM/1% Penicillin-Streptomycin. Cells were immediately washed in 100 μL of PBS plus Mg^2+ and Ca^2+, and harvested in ice-cold CEB minus EGTA plus protease inhibitors, frozen on dry ice and stored at −80° C. until processed. A Micro BCA (Pierce) total protein assay, and total synuclein and phospho-synuclein ELISAs were performed on each plate of treated cells using standard methods.

[3] = tested on: synuclein phosphorylation (serine-129); assay: inhibition of synuclein phosphorylation across the cellular paradigms (primary neuronal cultures and 293 cells); assay type: cell-based, mouse, rat and human; conditions: Homo sapiens, HEK293; most EC50 values, all cellular paradigms; read-out: EC50 inhibition of synuclein phosphorylation, cellular paradigms
panel of 260 kinases = assay: screen against a panel of 260 kinases at 10 uM; assay type: biochemical

Compound	p-synuclein levels in brain (brain p-synuclein)	EC50 ([1]; HEK293, read-out: EC50, Endogenous Kinase (293)) [nM]	EC50 ([1]; HEK293, read-out: EC50 Based on the Percent Inhibition of Synuclein Phosphorylation, Synuclein + Vector) [nM]	EC50 ([1]; HEK293, read-out: EC50 synuclein phosphorylation, endogenous kinase) [nM]	EC50 ([2]; Mus musculus, read-out: EC50, E46K-Syn TG MCC) [nM]	EC50 ([2]; Swiss-Webster mouse cortical cultures, read-out: EC50, Swiss-Webster MCC) [nM]	EC50 ([2]; WT mouse cortical cultures, read-out: EC50, WT-MCC) [nM]	EC50 [3] [nM]	inhibition in panel of 260 kinases (panel of 260 kinases)
C=C(C)[C@H]1CN[C@H](C(=O)O)[C@H]1CC(=O)O [kainic acid]	Increased levels	–	–	–	–	–	–	–	–
CC[C@@H]1C(=O)N(C)c2cnc(Nc3ccc(C(=O)NC4CCN(C)CC4)cc3OC)nc2N1C1CCCC1 [BI 2536, 4-[[(7r)-8-cyclopentyl-7-ethyl-5,6,7,8-tetrahydro-5-methyl-6-oxo-2-pteridinyl]amino]-3-methoxy-n-(1-methyl-4-piperidinyl)-benzamide]	–	54	99	99	< 100	92	< 100	≤ 100	very potent in inhibiting PLK2 and PLK3
